Test results reported in paper PMC10817943 (Nature Communications, 2024).
Converted amounts (≈) assume the structure as drawn. “And” between values parts separate entries of the source, which are not always exact repeats. Equal entries are not always repeated. Where two headings read alike, the source gives them in different places. Numbered stars: 1 amine (or outer) side, 2 acyl side, 3 side chain; on linkers, the order of the positions; unused ones are H or OH. Bridge positions count the residues as written; N and C are the ends. Square brackets hold non-standard residues; d marks the D form. Peptide text beside a SMILES is read from it. * marks the point of attachment. ξ: configuration not given here. X1 = CCC1CC(C(=O)[*:2])N([*:1])C1; Butanoyl(2-oxo) = CCC(=O)C(=O)*; ξPro(4ξ-Me) = CC1CNC(C(=O)O)C1; NMeT = CN[CH](C(=O)O)[CH](C)O; NMeL = CN[CH](CC(C)C)C(=O)O; hLeu = CC(C)CC[CH](N)C(=O)O; NMeV = CN[CH](C(=O)O)C(C)C

Key:
[1] = test system: M. tuberculosis (Mtb) strain H37Ra; test: microbe, parasite or virus in culture; type: cell-based; settings: Mycobacterium tuberculosis, read-out: MIC Mtb H37Ra
[2] = test system: M. tuberculosis (Mtb) strain H37Rv; test: microbe, parasite or virus in culture; type: cell-based, Mycobacterium tuberculosis
[3] = test system: M. smegmatis (Msmeg) strain mc^2155; test: microbe, parasite or virus in culture; type: cell-based; settings: Mycolicibacterium smegmatis, MC^2155, read-out: MIC M. smegmatis mc^2155
[4] = test system: M. smegmatis mc^2155 GM^R; test: microbe, parasite or virus in culture; type: cell-based; settings: Mycolicibacterium smegmatis, MC^2155, read-out: MIC M. smegmatis mc^2155 GM^R
[5] = test system: M. marinum (Mm) strain M (ATCC BAA-535); test: microbe, parasite or virus in culture; type: cell-based; settings: Mycobacterium marinum, ATCCBAA535, read-out: MIC M. marinum strain M
[6] = test system: CHO-K1 cells; test: cells; type: cell-based, Chinese hamster (Cricetulus griseus); settings: Cricetulus griseus, CHO-K1, 120 h, read-out: IC50 CHO-K1
[7] = molecular target: M. smegmatis DnaN (msDnaN) (Mycolicibacterium smegmatis, UniProt A0QND6); test: biochemical; type: binding; settings: for Response (Average): MST source data, runs #1-#3, listed as MP A
M. smegmatis DnaN (msDnaN), sequence (A0QND6 whole entry, looked up): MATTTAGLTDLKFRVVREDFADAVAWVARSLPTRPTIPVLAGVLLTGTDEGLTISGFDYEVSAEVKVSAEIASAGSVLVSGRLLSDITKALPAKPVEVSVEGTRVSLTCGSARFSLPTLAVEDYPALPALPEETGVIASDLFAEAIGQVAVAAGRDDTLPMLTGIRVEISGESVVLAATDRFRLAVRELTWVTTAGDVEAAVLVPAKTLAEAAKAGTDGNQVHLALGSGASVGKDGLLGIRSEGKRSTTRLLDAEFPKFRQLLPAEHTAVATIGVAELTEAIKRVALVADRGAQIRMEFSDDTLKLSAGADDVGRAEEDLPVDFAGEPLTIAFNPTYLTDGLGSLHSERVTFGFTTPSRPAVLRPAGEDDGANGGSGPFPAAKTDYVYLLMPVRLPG

[8] = test system: S. aureus Newman; test: microbe, parasite or virus in culture; type: cell-based; settings: Staphylococcus aureus, read-out: MIC S. aureus Newman
[9] = test system: B. subtilis DSM 10; test: microbe, parasite or virus in culture; type: cell-based; settings: Bacillus subtilis, DSM10, read-out: MIC B. subtilis DSM 10
[10] = test system: E. coli BW25113; test: microbe, parasite or virus in culture; type: cell-based; settings: Escherichia coli, BW25113, read-out: MIC E. coli BW25113
[11] = test system: C. freundii DSM 30039; test: microbe, parasite or virus in culture; type: cell-based; settings: Citrobacter freundii, DSM30039, read-out: MIC C. freundii DSM 30039
[12] = test system: A. baumannii DSM 30008; test: microbe, parasite or virus in culture; type: cell-based; settings: Acinetobacter baumannii, DSM30008, read-out: MIC A. baumannii DSM 30008
[13] = test system: M. smegmatis mc^2155 reporter strain harboring PrecA-LUX; settings: for luminescence induction: RecA reporter, ciprofloxacin 0.06 µg/mL, MPA 0.125 µg/mL
[14] = test system: M. smegmatis mc^2155 reporter strain harboring PradA-LUX; settings: for luminescence induction: RadA reporter, ciprofloxacin 0.06 µg/mL, MPA 0.125 µg/mL
[15] = test system: M. tuberculosis (Mtb) strain H37Rv; settings: cited from earlier work

## CCC(=O)C(=O)N(C)C(C(=O)N1CC(CC)CC1C(=O)N(C)C1C(=O)NC(CC(C)C)C(=O)N2CC(C)CC2C(=O)NC(CCC(C)C)C(=O)N(C)C(C(C)C)C(=O)N2CCCC2C(=O)N(C)C(CC(C)C)C(=O)NCC(=O)OC1C)C(C)C (centres unmarked) [Mycoplanecin A] ({Butanoyl(2-oxo)}-[NMeV][X1][NMeT]L[ξPro(4ξ-Me)][hLeu][NMeV]P[NMeL]G; ester 3-C; configuration not given here)
[1]
  MIC: 0.03 µg/mL (≈ 0.0253 µM)
[2]
  lower MIC against Mtb H37Rv than initially reported: four-fold
[2]; Mycobacterium tuberculosis, H37RV, read-out: MIC Mtb H37Rv
  MIC: 0.102 µg/mL (≈ 0.0862 µM)
[3]
  MIC: 0.0625 µg/mL (≈ 0.0528 µM)
[4]
  MIC: 4 µg/mL (≈ 3.38 µM)
[5]
  MIC: 0.5 µg/mL (≈ 0.422 µM)
[6]
  IC50: > 37 µg/mL
[7]
  Kd: 95.4 ± 58 nM
[7]; Dose 1.22E-08 (unit not given)
  Response (Average): 901.8 and 900.043 and 900.321
[7]; Dose 1.25E-05 (unit not given)
  Response (Average): 916.3 and 910.333 and 908.121
[7]; Dose 1.53E-09 (unit not given)
  Response (Average): 900.5 and 901.137 and 897.639
[7]; Dose 1.56E-06 (unit not given)
  Response (Average): 912 and 910.977 and 908.315
[7]; Dose 1.95E-07 (unit not given)
  Response (Average): 911.4 and 903.026 and 901.872
[7]; Dose 2.44E-08 (unit not given)
  Response (Average): 900.5 and 898.574 and 901.47
[7]; Dose 2.50E-05 (unit not given)
  Response (Average): 912.5 and 912.466 and 910.671
[7]; Dose 3.05E-09 (unit not given)
  Response (Average): 907.2 and 900.824 and 900.843
[7]; Dose 3.13E-06 (unit not given)
  Response (Average): 913.2 and 908.487 and 910.005
[7]; Dose 3.91E-07 (unit not given)
  Response (Average): 910.5 and 900.599 and 903.733
[7]; Dose 4.88E-08 (unit not given)
  Response (Average): 904.4 and 896.349 and 895.973
[7]; Dose 5.00E-05 (unit not given)
  Response (Average): 912 and 911.551 and 911.531
[7]; Dose 6.10E-09 (unit not given)
  Response (Average): 899.2 and 900.167 and 896.514
[7]; Dose 6.25E-06 (unit not given)
  Response (Average): 912 and 910.662 and 909.72
[7]; Dose 7.81E-07 (unit not given)
  Response (Average): 913.8 and 908.369 and 909.33
[7]; Dose 9.77E-08 (unit not given)
  Response (Average): 902.5 and 896.716 and 900.856
[8]
  MIC: > 64 µg/mL
[9]
  MIC: > 64 µg/mL
[10]
  MIC: > 64 µg/mL
[11]
  MIC: > 64 µg/mL
[12]
  MIC: > 64 µg/mL
[13]; 2x MIC, listed as MP A
  induction of SOS response through RecA (luminescence): Strong induction of luminescence
[13]; elapsed time 0:00:00
  luminescence induction: 1234 RLU
[13]; elapsed time 3:00:00
  luminescence induction: 8420 RLU
[13]; elapsed time 6:00:00
  luminescence induction: 19572 RLU
[13]; elapsed time 9:00:00
  luminescence induction: 19402 RLU
[13]; elapsed time 12:00:00
  luminescence induction: 19729 RLU
[13]; elapsed time 15:00:00
  luminescence induction: 23383 RLU
[13]; elapsed time 18:00:00
  luminescence induction: 24012 RLU
[13]; elapsed time 21:00:00
  luminescence induction: 23254 RLU
[13]; elapsed time 24:00:00
  luminescence induction: 21764 RLU
[13]; elapsed time 27:00:00
  luminescence induction: 21831 RLU
[13]; elapsed time 30:00:00
  luminescence induction: 22602 RLU
[13]; elapsed time 33:00:00
  luminescence induction: 24786 RLU
[13]; elapsed time 36:00:00
  luminescence induction: 30979 RLU
[13]; elapsed time 39:00:00
  luminescence induction: 43998 RLU
[13]; elapsed time 42:00:00
  luminescence induction: 72104 RLU
[13]; elapsed time 45:00:00
  luminescence induction: 126348 RLU
[13]; elapsed time 48:00:00
  luminescence induction: 167800 RLU
[13]; elapsed time 51:00:00
  luminescence induction: 276102 RLU
[13]; elapsed time 54:00:00
  luminescence induction: 398120 RLU
[13]; elapsed time 57:00:00
  luminescence induction: 382129 RLU
[13]; elapsed time 60:00:00
  luminescence induction: 236913 RLU
[13]; elapsed time 63:00:00
  luminescence induction: 123029 RLU
[13]; elapsed time 66:00:00
  luminescence induction: 65825 RLU
[13]; elapsed time 69:00:00
  luminescence induction: 39152 RLU
[13]; elapsed time 72:00:00
  luminescence induction: 26573 RLU
[13]; elapsed time 75:00:00
  luminescence induction: 20127 RLU
[13]; elapsed time 78:00:00
  luminescence induction: 16583 RLU
[13]; elapsed time 81:00:00
  luminescence induction: 14319 RLU
[13]; elapsed time 84:00:00
  luminescence induction: 12316 RLU
[13]; elapsed time 87:00:00
  luminescence induction: 11375 RLU
[14]; 2x MIC, listed as MP A
  induction of DNA repair through RadA (luminescence): Strong induction of luminescence
[14]; elapsed time 0:00:00
  luminescence induction: 121 RLU
[14]; elapsed time 3:00:00
  luminescence induction: 1545 RLU
[14]; elapsed time 6:00:00
  luminescence induction: 2517 RLU
[14]; elapsed time 9:00:00
  luminescence induction: 2232 RLU
[14]; elapsed time 12:00:00
  luminescence induction: 2473 RLU
[14]; elapsed time 15:00:00
  luminescence induction: 2636 RLU
[14]; elapsed time 18:00:00
  luminescence induction: 2684 RLU
[14]; elapsed time 21:00:00
  luminescence induction: 2416 RLU
[14]; elapsed time 24:00:00
  luminescence induction: 2295 RLU
[14]; elapsed time 27:00:00
  luminescence induction: 2095 RLU
[14]; elapsed time 30:00:00
  luminescence induction: 2147 RLU
[14]; elapsed time 33:00:00
  luminescence induction: 2090 RLU
[14]; elapsed time 36:00:00
  luminescence induction: 2617 RLU
[14]; elapsed time 39:00:00
  luminescence induction: 3126 RLU
[14]; elapsed time 42:00:00
  luminescence induction: 4043 RLU
[14]; elapsed time 45:00:00
  luminescence induction: 5111 RLU
[14]; elapsed time 48:00:00
  luminescence induction: 7463 RLU
[14]; elapsed time 51:00:00
  luminescence induction: 8233 RLU
[14]; elapsed time 54:00:00
  luminescence induction: 11519 RLU
[14]; elapsed time 57:00:00
  luminescence induction: 17058 RLU
[14]; elapsed time 60:00:00
  luminescence induction: 25987 RLU
[14]; elapsed time 63:00:00
  luminescence induction: 36814 RLU
[14]; elapsed time 66:00:00
  luminescence induction: 80633 RLU
[14]; elapsed time 69:00:00
  luminescence induction: 73655 RLU
[14]; elapsed time 72:00:00
  luminescence induction: 45431 RLU
[14]; elapsed time 75:00:00
  luminescence induction: 26035 RLU
[14]; elapsed time 78:00:00
  luminescence induction: 15293 RLU
[14]; elapsed time 81:00:00
  luminescence induction: 10478 RLU
[14]; elapsed time 84:00:00
  luminescence induction: 7153 RLU
[14]; elapsed time 87:00:00
  luminescence induction: 4415 RLU
[15]
  MIC against Mtb H37Rv initially reported: 0.39 µg/mL (≈ 0.33 µM)
